Assay results taken from patent US8470859B2, “Iminopyridine derivative and use thereof” (Takeda Pharmaceutical Company Limited, priority 2006, dated 2013).
pIC50: −log10 of the molar value. Where a name gives a salt, the structure may show the parent alone. Read-outs that look alike come from different tables or passages of the source.

What was measured:
[1] = tested on: isolated bladder muscle of BOO model rat; assay: Effect of various drugs on α1 receptor stimulation-induced contraction of isolated bladder muscle of bladder outlet obstruction (BOO) model rat; details: phenylephrine 3 μmol/L; for pIC50: Rattus norvegicus, 0.5 h, concentration inhibiting the average tension by 50%, read-out: Inhibitory effect on phenylephrine-induced contraction IC50 (average method); for pIC50 / Inhibitory effect on phenylephrine-induced contraction IC30 (stddev method): cumulative treatment, 3 concentrations, 30 min intervals; for Inhibitory effect on phenylephrine-induced contraction IC30 (stddev method): concentration inhibiting the sustained, rhythmic contractile responses by 30%
Method: Effect of Various Drugs on α1 Receptor Stimulation-Induced Contraction of Isolated Bladder Muscle of Bladder Outlet Obstruction (BOO) Model Rat
• (i) Seven-week-old male Wistar rats (CLEA Japan, Inc., Tokyo) were used. BOO rat was prepared according to publications (Hashimoto T, Nagabukuro H and Doi T: Effects of the selective acetylcholinesterase inhibitor TAK-802 on the voiding behavior and bladder mass increase in rats with partial bladder outlet obstruction. J Urol. 174: 1137-41., 2005.). After pentobarbital (50 mg/kg i.p., Dainippon Sumitomo Pharma Co., Ltd., Osaka) anesthesia, a lower middle abdominal incision was made to expose the bladder. The prostate was detached, the urethra was ligated along with a glass rod having an outer diameter of 1.2 mm, and the glass rod was removed to prepare partial obstruction of the urethra. After the surgery, the abdomen was sutured, and penicillin (2000 IU/rat, penicillin G potassium, MEIJI SEIKA KAISHA, LTD., Tokyo) was subcutaneously administered. An animal after 2 to 4 weeks from obstruction surgery was used. • (ii) Contractile Responses of Isolated Bladder Muscle (1) Preparation of Bladder Muscle Specimen
BOO model rat was sacrificed by decaptation, and the bladder was isolated. Muscle strips (length 7-10 mm, width about 3 mm) in the longitudinal direction were prepared from the bladder except bladder trigone (4-6 specimen from each bladder).
The prepared bladder muscle specimens were hung in a Magnus bath aerated with 95% O2-5% CO2 gas and filled with modified Krebs solution. The contraction tension was measured by an isometric strain transducer (TSD125C, Biopac systems, Santa Barbara, Calif., USA) and recorded in the hard disc of PC (ThinkCentre, IBM, USA) via an amplifier (DA100C, Biopac systems) and a multichannel data analysis apparatus (MP100A-CE, Biopac systems). For uptaking the data, a dedicated software (Acqknowledge 3.8.1., Biopac systems) was used and the sampling interval was set to 0.2 second (5 Hz). The specimens were hung with a load of about 1 g and, after an equilibration time of 1 hr or longer, the following experiment was performed.
The specimens were treated with phenylephrine (3 μmol/L) to induce contraction. After the contractile response was stabilized (>20 min), the specimens were cumulatively treated 3 times with a drug at a 10-fold common ratio and 30 min intervals, and the variation in the tension was observed.
The variation in the tension due to α1 receptor stimulation was evaluated by the two methods shown below [average method and standard deviation (Stddev) method].
The average tension for one minute was measured immediately before phenylephrine treatment and after the contraction was stabilized after the treatment (immediately before completion of about 20 min observation time), and the difference was taken as 100%. The average tension for one minute was measured immediately before completion of observation time (30 min) after treatment with a drug at each concentration, and the inhibition rate of the drug at each concentration was calculated. In the vehicle treatment group, the variation rate of phenylephrine-induced contraction was calculated every time the specimens were treated 3 times with lo the solvent, and the inhibition rate of the drug at each concentration was adjusted based on the variation rate of the corresponding vehicle treatment group. The concentration (IC50) necessary for inhibiting the average tension by 50% by preclinical package (SAS Institute Japan, Ver. 5.0) was calculated based on the inhibition rate at each concentration.
The standard deviation was measured immediately before phenylephrine treatment and for 5 min after the contraction was stabilized after treatment (immediately before completion of the about 20 min observation time) and the difference was taken as 100%. […]

[2] = biological target: T1, human adrenaline α1D receptor (Homo sapiens, UniProt P25100); assay: Measurement of α1D receptor binding inhibitory activity ([3H]prazosin binding to membrane fraction of CHO-K1 cells expressing the receptor); details: read-out: binding inhibitory rate (%) (α1D receptor binding inhibitory rate at 1 μM)
T1 construct: expressed in transfected cells; membrane fraction used
T1 sequence (P25100 1-572): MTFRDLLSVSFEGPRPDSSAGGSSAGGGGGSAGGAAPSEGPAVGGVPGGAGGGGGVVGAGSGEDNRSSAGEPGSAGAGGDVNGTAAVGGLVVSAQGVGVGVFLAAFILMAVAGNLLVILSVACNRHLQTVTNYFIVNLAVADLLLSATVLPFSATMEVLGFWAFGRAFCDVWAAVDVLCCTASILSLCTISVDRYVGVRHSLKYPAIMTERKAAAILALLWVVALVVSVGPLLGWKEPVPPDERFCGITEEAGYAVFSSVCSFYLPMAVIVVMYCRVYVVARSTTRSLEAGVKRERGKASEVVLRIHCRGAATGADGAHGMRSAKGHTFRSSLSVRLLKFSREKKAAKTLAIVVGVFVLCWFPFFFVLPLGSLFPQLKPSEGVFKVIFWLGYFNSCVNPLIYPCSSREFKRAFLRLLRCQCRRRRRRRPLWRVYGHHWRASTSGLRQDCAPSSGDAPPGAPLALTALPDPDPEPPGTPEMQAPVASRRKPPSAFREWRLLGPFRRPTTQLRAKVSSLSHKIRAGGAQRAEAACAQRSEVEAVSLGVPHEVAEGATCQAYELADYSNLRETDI
Method: Measurement of α1D Receptor Binding Inhibitory Activity
Genetic manipulation methods described below are based on the methods described in Maniatis et al., Molecular Cloning, Cold Spring Harbor Laboratory, 1989, the protocol appended to a reagent and the like. • (i) Preparation of Human Adrenaline α1D Receptor Expression Plasmid
Adrenaline α1D receptor gene was cloned from human […] CDNA by the PCR method. PCR reaction was performed by Gene Amp PCR System 9700 (Applied Biosystems) with […] each of the primer set 5′-[…]-3′ [SEQ ID NO: 1] and 5′-[…]-3′ [SEQ ID NO: 2] prepared in reference to the base sequence of the adrenaline α1D receptor gene reported by DEBRA A. et al. (J. Pharamacol. Exp. Ter., 272, 134-142 (1995)), 200 ng of human brain hippocampus cDNA library (Takara Shuzo Co., Ltd.) as a template and TaKaRa LA-Taq DNA Polymerase (Takara Shuzo Co., Ltd.) (reaction conditions: 45 cycles of 94° C. for 15 sec, 68° C. for 3.5 min).
The PCR fragment obtained above was digested with restriction enzymes NheI (Takara Shuzo Co., Ltd.) and Kpn I (Takara Shuzo Co., Ltd.) and applied to agarose gel electrophoresis to recover DNA fragments. The DNA fragments was ligated with animal cell expression plasmid, pcDNA3.1/Zeo (Invitrogen) digested with NheI and Kpn I, by DNA Ligation Kit Ver.2 (Takara Shuzo Co., Ltd.), and transformed the competent cells of Escherichia coli JM109 to obtain plasmid, pcDNA3. 1/Zeo-Adreα1D. • (ii) Introduction of Human Adrenaline α1D Receptor Expression Plasmid into CHO-K1 Cells and Preparation of Membrane Fraction
CHO-K1 cells passage cultured in HmF12 medium (Invitrogen) containing 10% fetal bovine serum (TRACE SCIENCETIFIC) in a 150 cm^2 culture flask (Corning Coaster) were detached with 0.5 g/L trypsin-0.2 g/L EDTA (Invitrogen), and the cells were washed with D-PBS(−) (Invitrogen) and centrifuged (1000 rpm, 5 min). Then, using Gene Pulser II (BioRad), DNA was introduced into the cells under the following conditions. 1×10^7 cells suspended in D-PBS(−) (700 μl) and 10 μg of pcDNA3.1/Zeo-Adreα1D were added in a 0.4 cm gap cuvette (BioRad), and electroporation was performed under voltage 0.25 kV, capacitance 960 μF. The cells were cultured in HamF12 medium containing 10% fetal bovine serum and 250 μg/mL Zeocin (Invitrogen) and the Zeocin resistance clones were selected.
Plurality of Zeocin resistance clones were selected and cultured in a cell culture flask (150 cm^2) until semiconfluent, and the cellular membrane fraction was prepared as follows.
The semiconfluent cells were detached with 0.02% EDTA containing D-PBS(−) and recovered by centrifugation. The cells were suspended in membrane preparation buffer (10 mM NaHCO3 pH 7.4, protease inhibitor cocktail (Roche)) and disrupted by 3 times of treatment in a polytron homogenizer (model PT-3100, KINEMATICA AG) at 20000 rpm for 20 seconds. After disruption, the cells were centrifuged at 2000 rpm for 10 min and the supernatant containing membrane fractions was obtained. The supernatant was centrifuged using an ultracentrifuge (model L8-70M, rotor 70 Ti, Beckman Instruments) at 30000 rpm for 1 hr to obtain a precipitate containing membrane fractions. The obtained membrane fraction of each clone was subjected to the binding experiment shown below.
The membrane fraction (20 μg/well) [^3H] prazosin (2.5 nM, PerkinElmer Lifescience), as a ligand, were diluted with a binding assay buffer (50 mM Tris-HCl, 10 mM MgCl2, 0.5% BSA, protease inhibitor cocktail pH 7.5) and added to a 96 well microplate, and reacted at room temperature for 1 hr. For the measurement of non-specific binding, phentolamine (Sigma) was further added to 10 μM. Then, the reaction mixture was filtered and transferred to unifilter GF/C (PerkinElmer Lifescience) by using a cell harvester (PerkinElmer Lifescience). The filter was washed 3 times with ice-cooled 50 mM Tris buffer (pH 7.5). […]

[3] = compound at 1 μM, [3H] prazosin 2.5 nM, membrane fraction 20 μg/well

Row | inhibition at 1 µM [2, 3] [%] | Compound | also measured
1 |  | COc1ccccc1N1CCN(CCN2C(=O)CC3(CCCC3)CC2=O)CC1 [BMY 7378] | pIC50 [1]: 6.57; effect on the rhythmic contractile response induced by phenylephrine (average method and Stddev method), in words [1]: inhibited; Inhibitory effect on phenylephrine-induced contraction IC30 (stddev method) [1]: 89 nM
2 | 81.8 | N=c1c(C(N)=O)cc(Cl)cn1CCc1ccccc1 [Example 23, 5-chloro-2-imino-1-(2-phenylethyl)-1,2-dihydropyridine-3-carboxamide] | 
3 | 75.7 | N=c1c(C(N)=O)cc(Cl)cn1CC1CCCCC1 [Example 26, 5-chloro-1-(cyclohexylmethyl)-2-imino-1,2-dihydropyridine-3-carboxamide] | 
4 | 96 | CS(=O)(=O)c1cc(Cl)ccc1Cn1cc(Cl)cc(C(N)=O)c1=N [Example 149, 5-chloro-1-[4-chloro-2-(methylsulfonyl)benzyl]-2-imino-1,2-dihydropyridine-3-carboxamide hydrobromide] | 
5 |  | N#Cc1cc(C(N)=O)c(=N)n(Cc2cccc(Cl)c2)c1 [Example 151, 1-(3-chlorobenzyl)-5-cyano-2-imino-1,2-dihydropyridine-3-carboxamide hydrobromide] | inhibition at 1 µM [2]: 69.5%
6 | 91.8 | N#Cc1ccc(F)c(Cn2cc(Cl)cc(C(N)=O)c2=N)c1 [Example 156, 5-chloro-1-(5-cyano-2-fluorobenzyl)-2-imino-1,2-dihydropyridine-3-carboxamide hydrobromide] | 
7 | 95.4 | N#Cc1cc(F)cc(Cn2cc(Cl)cc(C(N)=O)c2=N)c1 [Example 181, 5-chloro-1-(3-cyano-5-fluorobenzyl)-2-imino-1,2-dihydropyridine-3-carboxamide hydrobromide] | 
8 | 99.2 | N#Cc1cc(Cl)cc(Cn2cc(Cl)cc(C(N)=O)c2=N)c1 [Example 182, 5-chloro-1-(3-chloro-5-cyanobenzyl)-2-imino-1,2-dihydropyridine-3-carboxamide hydrobromide] | 
9 |  | COc1ccccc1N1CCN(CC(O)COc2cccc3ccccc23)CC1 (stereo not drawn) [Naftopidil] | pIC50 [1]: 5.82; effect on the rhythmic contractile response induced by phenylephrine (average method and Stddev method), in words [1]: inhibited; Inhibitory effect on phenylephrine-induced contraction IC30 (stddev method) [1]: 3800 nM
10 |  | CCOc1ccccc1OCCN[C@H](C)Cc1ccc(OC)c(S(N)(=O)=O)c1 [Tamsulosin, tamsulosin] | pIC50 [1]: 7.47; effect on the rhythmic contractile response induced by phenylephrine (average method and Stddev method), in words [1]: inhibited; Inhibitory effect on phenylephrine-induced contraction IC30 (stddev method) [1]: 9.4 nM

Row | Compound | inhibition at 1 µM [2, 3] [%] | also measured
11 | N=c1c(C(N)=O)cc(Cl)cn1Cc1cccc(Cl)c1 [Example 19, 5-chloro-1-(3-chlorobenzyl)-2-imino-1,2-dihydropyridine-3-carboxamide] | 99.1 | 
12 | N=c1c(C(N)=O)cc(Cl)cn1Cc1ccc(Cl)c(Cl)c1 [Example 20, 5-chloro-1-(3,4-dichlorobenzyl)-2-imino-1,2-dihydropyridine-3-carboxamide] | 100 | 
13 | N=c1c(C(N)=O)cc(Cl)cn1C1CCc2ccccc21 (stereo not drawn) [Example 32, 5-chloro-1-(2,3-dihydro-1H-inden-1-yl)-2-imino-1,2-dihydropyridine-3-carboxamide] | 93.9 | 
14 | C[C@H](c1ccccc1)n1cc(Cl)cc(C(N)=O)c1=N [Example 168, 5-chloro-2-imino-1-[(1R)-1-phenylethyl]-1,2-dihydropyridine-3-carboxamide hydrochloride] | 94.7 | 
15 | N=c1c(C(N)=O)cc(Cl)cn1[C@@H]1CCc2ccccc21 [Example 169, 5-chloro-1-[(1R)-2,3-dihydro-1H-inden-1-yl]-2-imino-1,2-dihydropyridine-3-carboxamide hydrochloride] | 100 | 
